Publication PMC11356900, “Synthesis, Structural Properties and Biological Activities of Novel Hydrazones of 2-, 3-, 4-Iodobenzoic Acid” (Molecules, 2024)
≈ marks a conversion by molar mass, not a printed value.

Key:
[1] = system: Bordetella bronchiseptica ATCC 4617; assay: Broth microdilution MIC/MBC; settings: ATCC4617
[2] = system: Staphylococcus aureus ATCC 29213; assay: Broth microdilution MIC/MBC; settings: ATCC29213
[3] = system: Staphylococcus aureus ATCC 43300; assay: Broth microdilution MIC/MBC; settings: ATCC43300 / MRSA
[4] = system: Staphylococcus aureus ATCC 25923; assay: Broth microdilution MIC/MBC
[5] = system: Micrococcus luteus ATCC 10240; assay: Broth microdilution MIC/MBC
Gram-positive bacteria = assay: Broth microdilution, summary over reference Gram-positive bacteria; format: cell-based
Text: (§1) Procedures of in vitro antimicrobial assays are described in Supplementary Materials.
(§2) 2. Microbiology – in vitro antimicrobial activity assays […]
(§3) using the broth microdilution method according to the European Committee on Antimicrobial Susceptibility Testing (EUCAST) and Clinical and Laboratory Standards Institute guidelines against a panel of reference and clinical or saprophytic strains of mi croorganisms, including the Gram-positive bacteria: Staphylococcus aureus ATCC 43300 (Methi-cillin Resistant S. aureus – MRSA), Staphylococcus aureus ATCC 29213 (Methicillin Susceptible S. aureus – MSSA), Staph-ylococcus epidermidis ATCC 12228, Micrococcus luteus ATCC 10240, Bacillus subtilis ATCC 6633 and Bacillus cereus ATCC 10876), Gram-negative bacteria: Bordetella bronchiseptica ATCC 4617, Escherichia coli ATCC 25922, Klebsiella pneumoniae ATCC 13883, Proteus mirabilis ATCC 12453, Salmonella typhimurium ATCC 14028 and Pseudomonas aeruginosa ATCC 9027, and fungi belonging to yeasts: Candida albicans ATCC 10231, Candida albicans ATCC 2091, Candida parapsilosis ATCC 22019, Candida glabrata ATCC 90030 and Candida krusei ATCC 14243. The microorganisms belonging to ATCC originated from American Type Culture Collection, routinely used for the evaluation of antimicrobials. All the used microbial cultures were first subcultured on nutrient agar or Sabouraud agar at 35°C for 18-24 h or 30°C for 24-48 h for bacteria […]
(§4) The surface of Mueller-Hinton agar (for bacteria) and RPMI 1640 with MOPS (for fungi) were inoculated with the suspensions of bacterial or fungal species. Microbial suspensions were prepared in sterile saline with an optical density of McFarland standard scale 0.5. The samples containing the compounds were dissolved in dimethyl sulfoxide (DMSO).
(§5) Furthermore, the bacterial and fungal suspensions put onto the Petri dishes with solid media containing 2 mg/mL of the tested compounds followed were incubated at 37°C for 24h and 30°C for 48h for bacteria and fungi, respectively.
(§6) The inhibition of microbial growth was estimated comparing with a control culture prepared without any tested sam- […]
(§7) antifungal compounds, respectively.
(§8) Subsequently, MIC (Minimal Inhibitory Concentration) of the compounds was examined by the microdilution broth method, using their two-fold dilutions in Mueller-Hinton broth (for bacteria) and RPMI 1640 broth with MOPS (for fungi) prepared in the 96-well polystyrene plates. The final concentrations of the compounds ranged from 1000 to 0.488 µg/mL. Microbial suspensions were prepared in 0.85% NaCl with an optical density of 0.5 McFarland standard. Next each bacterial or fungal suspension was added per each well containing broth and various concentrations of the exam-ined compounds. After incubation, the MIC was assessed spectrophotometrically as the lowest concentration of the […]
(§9) Appropriate DMSO, growth and sterile controls were carried out. The medium with no tested substances was used as a control The MBC (Minimal Bactericidal Concentration) and MFC (Minimal Fungicidal Concentration) are defined as the lowest concentration of the compounds that is required to kill a particular bacterial or fungal species. The MBC/MFC was determined by removing the culture used for the MIC determination from each well and spotted onto the appro-priate agar medium. The plates were incubated under appropriate conditions for bacteria and fungi. The lowest com-pounds concentration with no visible growth observed was assessed as a bactericidal/fungicidal concentration. All the experiments were repeated three times and the representative data are presented.
(§10) 1. European Committee for Antimicrobial Susceptibility Testing (EUCAST) Determination of minimum inhibitory con-centrations (MICs) of antibacterial agents by broth dilution. EUCAST discussion document E. Dis 5.1. Clin. Microbiol.
(§11) 2. Clinical and Laboratory Standards Institute. Reference method for broth dilution antifungal susceptibility testing of […]

[6] = system: Bacillus cereus ATCC 10876; assay: Broth microdilution MIC/MBC
[7] = system: Klebsiella pneumoniae ATCC 13883; assay: Broth microdilution MIC/MBC; settings: ATCC13883
[8] = system: Proteus mirabilis ATCC 12453; assay: Broth microdilution MIC/MBC; settings: ATCC12453
[9] = system: Pseudomonas aeruginosa ATCC 9027; assay: Broth microdilution MIC/MBC; settings: ATCC9027
[10] = system: Escherichia coli ATCC 25922; assay: Broth microdilution MIC/MBC; settings: ATCC25922
[11] = system: Staphylococcus epidermidis ATCC 12228; assay: Broth microdilution MIC/MBC; settings: ATCC12228
[12] = system: Bacillus subtilis ATCC 6633; assay: Broth microdilution MIC/MBC; settings: ATCC6633
[13] = system: Candida parapsilosis ATCC 22019; assay: Broth microdilution MIC/MFC; format: cell-based; settings: Lodderomyces parapsilosis; for MIC: ATCC22019, read-out: MIC; for MFC: ATCC22019, read-out: MFC
Text: as §1, §2, §3, §4, §5, §6, §7, §8, §9, §10, §11

[14] = system: Candida krusei ATCC 14243; assay: Broth microdilution MIC/MFC; format: cell-based; settings: Pichia kudriavzevii, ATCC14243, read-out: MIC
Text: as §1, §2, §3, §4, §5, §6, §7, §8, §9, §10, §11

[15] = system: Candida albicans ATCC 2091; assay: Broth microdilution MIC/MFC; format: cell-based; settings: for MIC: ATCC2091, read-out: MIC
Text: as §1, §2, §3, §4, §5, §6, §7, §8, §9, §10, §11

[16] = system: Candida glabrata ATCC 90030; assay: Broth microdilution MIC/MFC; format: cell-based; settings: Nakaseomyces glabratus; for MIC: ATCC90030, read-out: MIC
Text: as §1, §2, §3, §4, §5, §6, §7, §8, §9, §10, §11

[17] = system: Candida albicans ATCC 10231; assay: Broth microdilution MIC/MFC; format: cell-based; settings: for MIC: ATCC10231, read-out: MIC
Text: as §1, §2, §3, §4, §5, §6, §7, §8, §9, §10, §11

[18] = system: Salmonella typhimurium ATCC 14028; assay: Broth microdilution MIC/MBC; settings: Salmonella enterica
[19] = Staphylococcus aureus, ATCC25923

Structure (SMILES) | MIC [1] [µg/mL] | MIC [2] [µg/mL] | MIC [3] [µg/mL] | MIC [4, 19] [µg/mL] | MBC ([5]; Micrococcus luteus, ATCC10240) [µg/mL] | MIC ([5]; Micrococcus luteus, ATCC10240) [µg/mL] | MIC ([6]; Bacillus cereus, ATCC10876) [µg/mL] | MIC [7] [µg/mL] | MIC [8] [µg/mL] | MIC [9] [µg/mL] | melting point [°C] | MIC [10] [µg/mL] | MBC [11] [µg/mL] | MIC [11] [µg/mL] | MBC [12] [µg/mL] | MIC [12] [µg/mL] | MIC [13] [µg/mL] | MIC [14] [µg/mL] | MIC [15] [µg/mL] | MIC [18] [µg/mL] | also measured
NNC(=O)c1cccc(I)c1 [Compound 5, 3-iodobenzohydrazide] | > 1000 | > 1000 | > 1000 | > 1000 | > 1000 | 1000 (≈ 3820 µM) | > 1000 | > 1000 | > 1000 | > 1000 | 134 to 140 | > 1000 | > 1000 | 1000 (≈ 3820 µM) | > 1000 | 1000 (≈ 3820 µM) | > 1000 | > 1000 | > 1000 | > 1000 | MIC (Gram-positive bacteria): 31.2 to 1000 µg/mL (≈ 119 to 3820 µM); MIC [16]: > 1000 µg/mL; MIC [17]: > 1000 µg/mL
NNC(=O)c1ccc(I)cc1 [Compound 6, 4-iodobenzohydrazide] | > 1000 | > 1000 | > 1000 | > 1000 | > 1000 | 500 (≈ 1910 µM) | > 1000 | > 1000 | > 1000 | > 1000 | 161 to 162 | > 1000 | > 1000 | 1000 (≈ 3820 µM) | > 1000 | 1000 (≈ 3820 µM) | 250 (≈ 954 µM) | > 1000 | > 1000 | > 1000 | MFC [13]: > 1000 µg/mL; MIC [16]: > 1000 µg/mL; MIC [17]: > 1000 µg/mL
O=C(N/N=C/c1cccc([N+](=O)[O-])c1O)c1cccc(I)c1 [Compound 15, N-[(2-hydroxy-3-nitrophenyl)methylidene]-3-iodobenzohydrazide] | > 1000 | 250 (≈ 608 µM) | 1000 (≈ 2430 µM) | 250 (≈ 608 µM) | 125 (≈ 304 µM) | 31.2 (≈ 76 µM) | 125 (≈ 304 µM) | > 1000 | > 1000 | > 1000 | 190 to 199 | > 1000 | 125 (≈ 304 µM) | 31.2 (≈ 76 µM) | 500 (≈ 1220 µM) | 125 (≈ 304 µM) | > 1000 | > 1000 | > 1000 | > 1000 | MBC [2]: > 1000 µg/mL; MBC [3]: > 1000 µg/mL; MBC [4, 19]: > 1000 µg/mL; MIC (Gram-positive bacteria): 31.2 to 500 µg/mL (≈ 76 to 1220 µM); MBC ([6]; Bacillus cereus, ATCC10876): 250 µg/mL (≈ 608 µM); MIC [16]: > 1000 µg/mL; MIC [17]: > 1000 µg/mL
O=C(N/N=C/c1cc(Cl)cc(Cl)c1O)c1cccc(I)c1 [Compound 17, N-[(3,5-dichloro-2-hydroxyphenyl)methylidene]-3-iodobenzohydrazide] | > 1000 | 15.6 (≈ 35.9 µM) | 15.6 (≈ 35.9 µM) | 31.2 (≈ 71.8 µM) | 15.6 (≈ 35.9 µM) | 15.6 (≈ 35.9 µM) | 15.6 (≈ 35.9 µM) | > 1000 | > 1000 | > 1000 | 210 to 212 | > 1000 | 62.5 (≈ 144 µM) | 15.6 (≈ 35.9 µM) | 15.6 (≈ 35.9 µM) | 7.81 (≈ 18 µM) | > 1000 | > 1000 | > 1000 | > 1000 | MBC [2]: 15.6 µg/mL (≈ 35.9 µM); MBC [3]: 15.6 µg/mL (≈ 35.9 µM); MBC [4, 19]: 31.2 µg/mL (≈ 71.8 µM); MIC (Gram-positive bacteria): 7.81 to 31.2 µg/mL (≈ 18 to 71.8 µM); MBC ([6]; Bacillus cereus, ATCC10876): 15.6 µg/mL (≈ 35.9 µM); MIC [16]: > 1000 µg/mL; MIC [17]: > 1000 µg/mL
O=C(N/N=C/c1cc(Cl)cc(Cl)c1O)c1ccc(I)cc1 [Compound 24, N-[(3,5-dichloro-2-hydroxyphenyl)methylidene]-4-iodobenzohydrazide] | > 1000 | 1000 (≈ 2300 µM) | > 1000 | > 1000 | > 1000 | 500 (≈ 1150 µM) | > 1000 | > 1000 | > 1000 | > 1000 | 281 to 284 | > 1000 |  | > 1000 | > 1000 | 500 (≈ 1150 µM) | 1000 (≈ 2300 µM) | > 1000 | 1000 (≈ 2300 µM) | > 1000 | MBC [2]: > 2000 µg/mL; MFC [13]: > 1000 µg/mL; MFC ([15]; ATCC2091, read-out: MFC): > 1000 µg/mL; MFC ([16]; ATCC90030, read-out: MFC): > 1000 µg/mL; MIC [16]: 250 µg/mL (≈ 575 µM); MFC ([17]; ATCC10231, read-out: MFC): > 1000 µg/mL; MIC [17]: 500 µg/mL (≈ 1150 µM)
CCOc1cccc(/C=N/NC(=O)c2ccc(I)cc2)c1O [Compound 25, N-[(3-ethoxy-2-hydroxyphenyl)methylidene]-4-iodobenzohydrazide] | > 1000 | > 1000 | > 1000 | > 1000 | 62.5 (≈ 152 µM) | 31.2 (≈ 76.2 µM) | > 1000 | > 1000 | > 1000 | > 1000 | 200 to 207 | > 1000 | > 1000 | 1000 (≈ 2440 µM) |  | > 1000 | 250 (≈ 609 µM) | > 1000 | > 1000 | > 1000 | MFC [13]: > 1000 µg/mL; MIC [16]: > 1000 µg/mL; MIC [17]: > 1000 µg/mL
O=C1CN(/N=C/c2ccc([N+](=O)[O-])o2)C(=O)N1 [NIT, nitrofurantoin, reference compound] | 125 (≈ 525 µM) |  | 7.81 (≈ 32.8 µM) | 15.6 (≈ 65.6 µM) | 62.5 (≈ 262 µM) | 62.5 (≈ 262 µM) | 7.81 (≈ 32.8 µM) | 15.6 (≈ 65.6 µM) | 62.5 (≈ 262 µM) |  |  | 7.81 (≈ 32.8 µM) | 7.81 (≈ 32.8 µM) | 3.91 (≈ 16.4 µM) | 3.91 (≈ 16.4 µM) | 3.91 (≈ 16.4 µM) |  |  |  | 31.2 (≈ 131 µM) | MIC ([4]; Staphylococcus aureus ATCC 25923): 15.62 (15.62) µg/mL; MBC [4, 19]: 15.6 µg/mL (≈ 65.6 µM); MIC ([5]; Micrococcus luteus ATCC 10240): 62.5 (62.5) µg/mL; MBC ([6]; Bacillus cereus ATCC 10876): 15.62 µg/mL (≈ 65.6 µM); MBC ([6]; Bacillus cereus, ATCC10876): 15.6 µg/mL (≈ 65.6 µM)
